Read-outs that look alike come from different tables or passages of the source.
Target: GST-Bcl-2 (Homo sapiens (Human), UniProt P10415)
Assay: Time Resolved-Fluorescence Resonance Energy Transfer (TR-FRET) Bcl-2 binding assay
In short: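 Ki values derived from TR-FRET displacement of F-Bak peptide from GST-Bcl-2, detected with Tb-labelled anti-GST antibody (ex 340, em 520/495 nm). Compound dilution series started at 50 μM (2× starting concentration); room-temperature incubation 3 hours.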

[1] = GST-Bcl-2 1 nM, F-Bak peptide probe 100 nM, Tb-anti-GST antibody 1 nM, Ki by Wang's equation

Chain of GST-Bcl-2 (P10415 whole entry): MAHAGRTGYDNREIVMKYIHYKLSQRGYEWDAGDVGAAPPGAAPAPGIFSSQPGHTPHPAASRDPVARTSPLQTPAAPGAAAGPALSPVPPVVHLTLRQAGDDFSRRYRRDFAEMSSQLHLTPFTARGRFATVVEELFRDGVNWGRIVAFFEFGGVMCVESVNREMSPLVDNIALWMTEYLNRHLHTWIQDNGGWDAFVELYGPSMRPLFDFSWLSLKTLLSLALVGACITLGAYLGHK

Row | SMILES | Ki [nM] | Ki [1] [nM]
1 | CC1(C)CC(c2ccc(Cl)cc2)=C(CN2CCN(c3ccc(C(=O)NS(=O)(=O)c4ccc(N[C@H]5CC[C@H](N6CCOCC6)CC5)c([N+](=O)[O-])c4)c(Oc4cc5cc[nH]c5cc4Cl)c3)CC2)CO1 [Example 294, Trans-2-[(6-chloro-1H-indol-5-yl)oxy]-4-(4-{[4-(4-chlorophenyl)-6,6-dimethyl-5,6-dihydro-2H-pyran-3-yl]methyl}piperazin-1-yl)-N-({4-[(4-morpholin-4-ylcyclohexyl)amino]-3-nitrophenyl}sulfonyl)benzamide] | 0.127 | –
2 | CC1(C)CC(c2ccc(Cl)cc2)=C(CN2CCN(c3ccc(C(=O)NS(=O)(=O)c4ccc(NC5CCC(N6CCOCC6)CC5)c([N+](=O)[O-])c4)c(Oc4cc5cc[nH]c5cc4F)c3)CC2)CO1 (stereo not shown) [Example 295, 4-(4-{[4-(4-chlorophenyl)-6,6-dimethyl-5,6-dihydro-2H-pyran-3-yl]methyl}piperazin-1-yl)-2-[(6-fluoro-1H-indol-5-yl)oxy]-N-({4-[(4-morpholin-4-ylcyclohexyl)amino]-3-nitrophenyl}sulfonyl)benzamide] | – | 0.077
3 | CC1(C)CCC(CN2CCN(c3ccc(C(=O)NS(=O)(=O)c4ccc(OCC5(F)CCOCC5)c([N+](=O)[O-])c4)c(Oc4cc5cc[nH]c5cc4F)c3)CC2)=C(c2ccc(Cl)cc2)C1 [Example 296, 4-(4-{[2-(4-chlorophenyl)-4,4-dimethylcyclohex-1-en-1-yl]methyl}piperazin-1-yl)-2-[(6-fluoro-1H-indol-5-yl)oxy]-N-({4-[(4-fluorotetrahydro-2H-pyran-4-yl)methoxy]-3-nitrophenyl}sulfonyl)benzamide] | – | < 0.01
4 | CC1(C)CC(c2ccc(Cl)cc2)=C(CN2CCN(c3ccc(C(=O)NS(=O)(=O)c4cnc(OCC5CCOCC5)c(C#N)c4)c(Oc4cc5cc[nH]c5cc4F)c3)CC2)CO1 [Example 298, 4-(4-{[4-(4-chlorophenyl)-6,6-dimethyl-5,6-dihydro-2H-pyran-3-yl]methyl}piperazin-1-yl)-N-{[5-cyano-6-(tetrahydro-2H-pyran-4-ylmethoxy)pyridin-3-yl]sulfonyl}-2-[(6-fluoro-1H-indol-5-yl)oxy]benzamide] | – | 0.054
5 | CC1(C)CCC(CN2CCN(c3ccc(C(=O)NS(=O)(=O)c4ccc(NCC5CCOCC5)c([N+](=O)[O-])c4)c(Oc4ccc5[nH]cc(CCN)c5c4)c3)CC2)=C(c2ccc(Cl)cc2)C1 [Example 299, 2-{[3-(2-aminoethyl)-1H-indol-5-yl]oxy}-4-(4-{[2-(4-chlorophenyl)-4,4-dimethylcyclohex-1-en-1-yl]methyl}piperazin-1-yl)-N-({3-nitro-4-[(tetrahydro-2H-pyran-4-ylmethyl)amino]phenyl}sulfonyl)benzamide] | – | 51.7
6 | CN1CCN(Nc2ccc(S(=O)(=O)NC(=O)c3ccc(N4CCN(CC5=C(c6ccc(Cl)cc6)CC(C)(C)CC5)CC4)cc3Oc3ccc4[nH]cc(CCN)c4c3)cc2[N+](=O)[O-])CC1 [Example 300, 2-{[3-(2-aminoethyl)-1H-indol-5-yl]oxy}-4-(4-{[2-(4-chlorophenyl)-4,4-dimethylcyclohex-1-en-1-yl]methyl}piperazin-1-yl)-N-({4-[(4-methylpiperazin-1-yl)amino]-3-nitrophenyl}sulfonyl)benzamide] | – | 13.7
7 | CC1(C)CCC(CN2CCN(c3ccc(C(=O)NS(=O)(=O)c4cnc(OCC5CCOCC5)c(C#N)c4)c(Oc4cc5cc[nH]c5cc4F)c3)CC2)=C(c2ccc(Cl)cc2)C1 [Example 301, 4-(4-{[2-(4-chlorophenyl)-4,4-dimethylcyclohex-1-en-1-yl]methyl}piperazin-1-yl)-N-{[5-cyano-6-(tetrahydro-2H-pyran-4-ylmethoxy)pyridin-3-yl]sulfonyl}-2-[(6-fluoro-1H-indol-5-yl)oxy]benzamide] | – | 0.113
8 | CC1(C)CCC(CN2CCN(c3ccc(C(=O)NS(=O)(=O)c4ccc(NCC5CCOCC5)c([N+](=O)[O-])c4)c(Oc4cnc(N)c(F)c4)c3)CC2)=C(c2ccc(Cl)cc2)C1 [Example 302, 2-[(6-amino-5-fluoropyridin-3-yl)oxy]-4-(4-{[2-(4-chlorophenyl)-4,4-dimethylcyclohex-1-en-1-yl]methyl}piperazin-1-yl)-N-({3-nitro-4-[(tetrahydro-2H-pyran-4-ylmethyl)amino]phenyl}sulfonyl)benzamide] | – | < 0.01
9 | CC1(C)CCC(CN2CCN(c3ccc(C(=O)NS(=O)(=O)c4cnc(OCC5CCOCC5)c(Cl)c4)c(Oc4cc5cc[nH]c5cc4F)c3)CC2)=C(c2ccc(Cl)cc2)C1 [Example 303, 4-(4-{[2-(4-chlorophenyl)-4,4-dimethylcyclohex-1-en-1-yl]methyl}piperazin-1-yl)-N-{[5-chloro-6-(tetrahydro-2H-pyran-4-ylmethoxy)pyridin-3-yl]sulfonyl}-2-[(6-fluoro-1H-indol-5-yl)oxy]benzamide] | – | 0.092
10 | CC1(C)CCC(CN2CCN(c3ccc(C(=O)NS(=O)(=O)c4ccc(N[C@H]5CC[C@H](N6CCOCC6)CC5)c([N+](=O)[O-])c4)c(Oc4cccc5c4CCNC5=O)c3)CC2)=C(c2ccc(Cl)cc2)C1 [Example 304, Trans-4-(4-{[2-(4-chlorophenyl)-4,4-dimethylcyclohex-1-en-1-yl]methyl}piperazin-1-yl)-N-({4-[(4-morpholin-4-ylcyclohexyl)amino]-3-nitrophenyl}sulfonyl)-2-[(1-oxo-1,2,3,4-tetrahydroisoquinolin-5-yl)oxy]benzamide] | 0.822 | –
11 | CC1(C)CCC(CN2CCN(c3ccc(C(=O)NS(=O)(=O)c4cnc(OCC5COCCO5)c(C#N)c4)c(Oc4cc5cc[nH]c5cc4F)c3)CC2)=C(c2ccc(Cl)cc2)C1 (stereo not shown) [Example 305, 4-(4-{[2-(4-chlorophenyl)-4,4-dimethylcyclohex-1-en-1-yl]methyl}piperazin-1-yl)-N-{[5-cyano-6-(1,4-dioxan-2-ylmethoxy)pyridin-3-yl]sulfonyl}-2-[(6-fluoro-1H-indol-5-yl)oxy]benzamide] | – | 0.146
12 | CC1(C)CCC(CN2CCN(c3ccc(C(=O)NS(=O)(=O)c4cnc(OCC5COCCO5)c(Br)c4)c(Oc4cc5cc[nH]c5cc4F)c3)CC2)=C(c2ccc(Cl)cc2)C1 (stereo not shown) [Example 306, N-{[5-bromo-6-(1,4-dioxan-2-ylmethoxy)pyridin-3-yl]sulfonyl}-4-(4-{[2-(4-chlorophenyl)-4,4-dimethylcyclohex-1-en-1-yl]methyl}piperazin-1-yl)-2-[(6-fluoro-1H-indol-5-yl)oxy]benzamide] | – | 0.671
13 | CC1(C)CCC(CN2CCN(c3ccc(C(=O)NS(=O)(=O)c4cnc(N[C@H]5CC[C@H](N6CCOCC6)CC5)c(Br)c4)c(Oc4cc5cc[nH]c5cc4F)c3)CC2)=C(c2ccc(Cl)cc2)C1 [Example 307, Trans-N-({5-bromo-6-[(4-morpholin-4-ylcyclohexyl)amino]pyridin-3-yl}sulfonyl)-4-(4-{[2-(4-chlorophenyl)-4,4-dimethylcyclohex-1-en-1-yl]methyl}piperazin-1-yl)-2-[(6-fluoro-1H-indol-5-yl)oxy]benzamide] | 0.524 | –
14 | CC1(C)CCC(CN2CCN(c3ccc(C(=O)NS(=O)(=O)c4cnc(OCC5(F)CCOCC5)c(C#N)c4)c(Oc4cc5cc[nH]c5cc4F)c3)CC2)=C(c2ccc(Cl)cc2)C1 [Example 308, 4-(4-{[2-(4-chlorophenyl)-4,4-dimethylcyclohex-1-en-1-yl]methyl}piperazin-1-yl)-N-({5-cyano-6-[(4-fluorotetrahydro-2H-pyran-4-yl)methoxy]pyridin-3-yl}sulfonyl)-2-[(6-fluoro-1H-indol-5-yl)oxy]benzamide] | – | 0.04
15 | CC1(C)CCC(CN2CCN(c3ccc(C(=O)NS(=O)(=O)c4ccc(NCC5CCOCC5)c([N+](=O)[O-])c4)c(Oc4cc(N)cc(Cl)c4)c3)CC2)=C(c2ccc(Cl)cc2)C1 [Example 309, 2-(3-amino-5-chlorophenoxy)-4-(4-{[2-(4-chlorophenyl)-4,4-dimethylcyclohex-1-en-1-yl]methyl}piperazin-1-yl)-N-({3-nitro-4-[(tetrahydro-2H-pyran-4-ylmethyl)amino]phenyl}sulfonyl)benzamide] | – | 0.69
16 | CC1(C)CCC(CN2CCN(c3ccc(C(=O)NS(=O)(=O)c4cnc(OCCN5CCOCC5)c(C#N)c4)c(Oc4cc5cc[nH]c5cc4F)c3)CC2)=C(c2ccc(Cl)cc2)C1 [Example 310, 4-(4-{[2-(4-chlorophenyl)-4,4-dimethylcyclohex-1-en-1-yl]methyl}piperazin-1-yl)-N-{[5-cyano-6-(2-morpholin-4-ylethoxy)pyridin-3-yl]sulfonyl}-2-[(6-fluoro-1H-indol-5-yl)oxy]benzamide] | – | 0.155
17 | CC1(C)CCC(CN2CCN(c3ccc(C(=O)NS(=O)(=O)c4ccc(O[C@H]5CC[C@H](N6CCOCC6)CC5)c([N+](=O)[O-])c4)c(Oc4cc5cc[nH]c5cc4F)c3)CC2)=C(c2ccc(Cl)cc2)C1 [Example 311, Trans-4-(4-{[2-(4-chlorophenyl)-4,4-dimethylcyclohex-1-en-1-yl]methyl}piperazin-1-yl)-2-[(6-fluoro-1H-indol-5-yl)oxy]-N-({4-[(4-morpholin-4-ylcyclohexyl)oxy]-3-nitrophenyl}sulfonyl)benzamide] | 0.185 | –
18 | CC1(C)CCC(CN2CCN(c3ccc(C(=O)NS(=O)(=O)c4cnc(NC5CCN(C6CCOCC6)CC5)c(Br)c4)c(Oc4cc5cc[nH]c5cc4F)c3)CC2)=C(c2ccc(Cl)cc2)C1 [Example 312, N-({5-bromo-6-[(1-tetrahydro-2H-pyran-4-ylpiperidin-4-yl)amino]pyridin-3-yl}sulfonyl)-4-(4-{[2-(4-chlorophenyl)-4,4-dimethylcyclohex-1-en-1-yl]methyl}piperazin-1-yl)-2-[(6-fluoro-1H-indol-5-yl)oxy]benzamide] | – | 0.531
19 | CC1(C)CCC(CN2CCN(c3ccc(C(=O)NS(=O)(=O)c4ccc(OCC5(F)CCOCC5)c([N+](=O)[O-])c4)c(Oc4cccc5c4CC(=O)N5)c3)CC2)=C(c2ccc(Cl)cc2)C1 [Example 313, 4-(4-{[2-(4-chlorophenyl)-4,4-dimethylcyclohex-1-en-1-yl]methyl}piperazin-1-yl)-N-({4-[(4-fluorotetrahydro-2H-pyran-4-yl)methoxy]-3-nitrophenyl}sulfonyl)-2-[(2-oxo-2,3-dihydro-1H-indol-4-yl)oxy]benzamide] | – | < 0.01

Reference: patent US8952157B2, “Apoptosis-inducing agents for the treatment of cancer and immune and autoimmune diseases” (AbbVie Inc., priority 2008, dated 2015)
